Assays:
[1] = tested on: RANTES/CCL5 secretion by Trex1-KO BMM; assay: Inhibition of RANTES/CCL5 secretion by Trex1-KO bone marrow-derived macrophages; assay type: cell-based, mice; design: key to BMM IC50 R (RANTES): A: an IC50 value less than 5 μM; B: an IC50 value between 5 and 20 μM; where an IC50 value could not be calculated from the data; conditions: RANTES secretion; for IC50: Mus musculus, Macrophage, read-out: BMM IC50 R (RANTES)
Procedure: (§1) A cellular assay can be used to asses the compounds of the invention for their ability to inhibit cytokine production. Bone marrow macrophages harvested from mice can be used to determine response as a function of compound concentration.
(§2) The inhibition of secreted cytokine was measured in bone marrow-derived macrophages (BMMs) from diseased mice to evaluate the potency of compounds of the invention as described herein. […] To derive bone marrow macrophages, marrow extracted from the femurs and tibias were harvested from Trex1-KO mice was cultured in growth media supplemented with macrophage colony-stimulating factor (M-CSF). Differentiated BMM were harvested and frozen for subsequent experimentation. For treatment with compound C1089 (see Example 13), a frozen stock of Trex1-KO BMM was thawed and 1×10^5 cells were plated in 96 well format. BMMs were treated with a dilution series of C1089 and incubated overnight at 37° C. 5% CO2, at which point cellular supernatants were harvested and stored at −80° C. for subsequent analysis. The media used for this dilution series was without FBS. Remaining cells were evaluated for viability using Cell Titer Glo 2.0 kit according to the manufacturer instructions. BMM supernatants were evaluated for the secreted cytokine […] (RANTES/CCL5) or for secreted cytokine monocyte chemoattractant protein 1 (MCP-1/CCL2) using cytometric bead array mouse Flex Set kits (BD Biosciences). Cytokine concentration was calculated from a standard curve and normalized to vehicle (DMSO) treated cells.

[2] = tested on: MCP-1/CCL2 secretion by Trex1-KO BMM; assay: Inhibition of MCP-1/CCL2 secretion by Trex1-KO bone marrow-derived macrophages; assay type: cell-based, mice; design: key to BMM IC50 M (MCP-1): A: an IC50 value less than 5 μM; B: an IC50 value between 5 and 20 μM; where an IC50 value could not be calculated from the data; conditions: MCP-1 secretion; for IC50: Mus musculus, Macrophage, read-out: BMM IC50 M (MCP-1)
Procedure: as §1, §2

[3] = tested on: cGAS/STING pathway in THP1 cells; assay: THP1 cell-based cGAS/STING pathway activity assay (IRF-3-linked luciferase reporter); conditions: Homo sapiens, THP-1
Outline: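 THP1 cells carrying an IRF-3-driven luciferase reporter were read across a range of compound concentrations, and IC50 values were derived from these concentration responses; the assay upper limit was 100 μM.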

[4] = molecular target: Human cGAS amino acids 155-522 (Homo sapiens (Human), UniProt Q8N884); assay: cGAS biochemical activity assay (ATP remaining, Kinase-Glo Max luminescence); conditions: human cGAS 155-522, ATP remaining (Kinase-Glo Max); read-out: cGAS IC50
Sequence of Human cGAS amino acids 155-522 (Q8N884 157-522): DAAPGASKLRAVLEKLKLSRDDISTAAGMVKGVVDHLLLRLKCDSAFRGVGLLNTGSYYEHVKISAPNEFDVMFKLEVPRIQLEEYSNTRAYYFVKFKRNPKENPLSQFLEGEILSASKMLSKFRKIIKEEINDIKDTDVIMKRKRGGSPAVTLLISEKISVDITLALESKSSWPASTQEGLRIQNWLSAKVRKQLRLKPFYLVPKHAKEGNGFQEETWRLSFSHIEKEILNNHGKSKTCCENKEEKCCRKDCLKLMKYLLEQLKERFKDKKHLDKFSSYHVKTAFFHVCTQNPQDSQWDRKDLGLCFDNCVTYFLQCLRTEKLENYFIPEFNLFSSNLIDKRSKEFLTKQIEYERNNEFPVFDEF

Row | SMILES | BMM IC50 R (RANTES) [1] | BMM IC50 M (MCP-1) [2] | IC50 [3] | IC50 [4] | IC50 [1] | IC50 [2]
1 | CSc1cccc2oc(-c3c(C)[nH]c4c(-c5ccccc5)c(C(F)(F)F)nn4c3=O)nc12 [Compound C1047, 5-methyl-6-(4-(methylthio)benzo[d]oxazol-2-yl)-3-phenyl-2-(trifluoromethyl)pyrazolo[1,5-a]pyrimidin-7(4H)-one] | – | – | < 20 µM | < 20 µM | < 5 µM | 5 to 20 µM
2 | Cc1[nH]c2c(-c3ccccc3)c(C(F)(F)F)nn2c(=O)c1-c1nc2c(Cl)cccc2o1 [Compound C1055, 6-(4-chlorobenzo[d]oxazol-2-yl)-5-methyl-3-phenyl-2-(trifluoromethyl)pyrazolo[1,5-a]pyrimidin-7(4H)-one] | C | C | < 20 µM | < 20 µM | – | –
3 | COc1cccc2oc(-c3c(Cl)[nH]c4c(-c5ccccc5)c(C(F)(F)F)nn4c3=O)nc12 [Compound C1071, 5-chloro-6-(4-methoxybenzo[d]oxazol-2-yl)-3-phenyl-2-(trifluoromethyl)pyrazolo[1,5-a]pyrimidin-7(4H)-one] | C | C | < 20 µM | < 20 µM | – | –
4 | Cc1[nH]c2c(-c3ccccc3)c(C(F)(F)F)nn2c(=O)c1-c1nc2c(C(N)=O)cccc2o1 [Compound C1074, 2-(5-methyl-7-oxo-3-phenyl-2-(trifluoromethyl)-4,7-dihydropyrazolo[1,5-a]pyrimidin-6-yl)benzo[d]oxazole-4-carboxamide] | C | C | > 100 µM | 20 to 250 µM | – | –
5 | COc1ccc(Br)c2oc(-c3c(C)[nH]c4c(-c5ccccc5)c(C(F)(F)F)nn4c3=O)nc12 [Compound C1081, 6-(7-bromo-4-methoxybenzo[d]oxazol-2-yl)-5-methyl-3-phenyl-2-(trifluoromethyl)pyrazolo[1,5-a]pyrimidin-7(4H)-one] | – | – | < 20 µM | < 20 µM | 5 to 20 µM | 5 to 20 µM
6 | COc1c(Br)ccc2oc(-c3c(C)[nH]c4c(-c5ccccc5)c(C(F)(F)F)nn4c3=O)nc12 [Compound C1082, 6-(5-bromo-4-methoxybenzo[d]oxazol-2-yl)-5-methyl-3-phenyl-2-(trifluoromethyl)pyrazolo[1,5-a]pyrimidin-7(4H)-one] | C | C | < 20 µM | < 20 µM | – | –
7 | COc1cccc2oc(-c3c(C)[nH]c4c(-c5ccccc5F)c(C(F)(F)F)nn4c3=O)nc12 [Compound C1091, 3-(2-fluorophenyl)-6-(4-methoxybenzo[d]oxazol-2-yl)-5-methyl-2-(trifluoromethyl)pyrazolo[1,5-a]pyrimidin-7(4H)-one] | C | C | < 20 µM | < 20 µM | – | –
8 | COc1cccc2oc(-c3c(COCc4ccccc4)[nH]c4c(-c5ccccc5)c(C(F)(F)F)nn4c3=O)nc12 [Compound C1099, 5-((benzyloxy)methyl)-6-(4-methoxybenzo[d]oxazol-2-yl)-3-phenyl-2-(trifluoromethyl)pyrazolo[1,5-a]pyrimidin-7(4H)-one] | C | C | < 20 µM | < 20 µM | – | –
9 | COc1cc(Cl)cc2oc(-c3c(C)[nH]c4c(-c5ccccc5)c(C(F)(F)F)nn4c3=O)nc12 [Compound C1105, 6-(6-chloro-4-methoxybenzo[d]oxazol-2-yl)-5-methyl-3-phenyl-2-(trifluoromethyl)pyrazolo[1,5-a]pyrimidin-7(4H)-one] | – | – | < 20 µM | < 20 µM | < 5 µM | 5 to 20 µM

Results, then the compound that gave them:

Row | BMM IC50 R (RANTES) [1] | BMM IC50 M (MCP-1) [2] | IC50 [3] | IC50 [4] | IC50 [1] | IC50 [2] | SMILES
10 | C | C | < 20 µM | < 20 µM | – | – | Cc1[nH]c2c(-c3ccccc3)c(C(F)(F)F)nn2c(=O)c1C(=O)Nc1cc(Br)cc(CN(C)C)c1 [Compound A1139, N-(3-bromo-5-((dimethylamino)methyl)phenyl)-5-methyl-7-oxo-3-phenyl-2-(trifluoromethyl)-4,7-dihydropyrazolo[1,5-a]pyrimidine-6-carboxamide]
11 | – | C | < 20 µM | < 20 µM | 5 to 20 µM | – | Cc1[nH]c2c(-c3ccccc3)c(C(F)(F)F)nn2c(=O)c1-c1nc2c(OCC3CC3)cccc2o1 [Compound C1045, 6-(4-(cyclopropylmethoxy)benzo[d]oxazol-2-yl)-5-methyl-3-phenyl-2-(trifluoromethyl)pyrazolo[1,5-a]pyrimidin-7(4H)-one]
12 | C | C | 20 to 100 µM | < 20 µM | – | – | Cc1[nH]c2c(-c3ccccc3)c(C(F)(F)F)nn2c(=O)c1-c1nc2c(O)cccc2o1 [Compound C1053, 6-(4-hydroxybenzo[d]oxazol-2-yl)-5-methyl-3-phenyl-2-(trifluoromethyl)pyrazolo[1,5-a]pyrimidin-7(4H)-one]
13 | C | C | < 20 µM | < 20 µM | – | – | Cc1[nH]c2c(-c3ccccc3)c(C(F)(F)F)nn2c(=O)c1-c1nc2c(OCc3ccccc3)cccc2o1 [Compound C1073, 6-(4-(benzyloxy)benzo[d]oxazol-2-yl)-5-methyl-3-phenyl-2-(trifluoromethyl)pyrazolo[1,5-a]pyrimidin-7(4H)-one]
14 | C | C | < 20 µM | < 20 µM | – | – | COc1cccc2oc(-c3c(C(F)(F)F)[nH]c4c(-c5ccccc5)c(C(F)(F)F)nn4c3=O)nc12 [Compound C1077, 6-(4-methoxybenzo[d]oxazol-2-yl)-3-phenyl-2,5-bis(trifluoromethyl)pyrazolo[1,5-a]pyrimidin-7(4H)-one]
15 | C | C | > 100 µM | < 20 µM | – | – | COc1ccc(C)c2oc(-c3c(C)[nH]c4c(-c5ccccc5)c(C(F)(F)F)nn4c3=O)nc12 [Compound C1092, 6-(4-methoxy-7-methylbenzo[d]oxazol-2-yl)-5-methyl-3-phenyl-2-(trifluoromethyl)pyrazolo[1,5-a]pyrimidin-7(4H)-one]
16 | – | C | < 20 µM | < 20 µM | < 5 µM | – | COc1ccc(Cl)c2oc(-c3c(C)[nH]c4c(-c5ccccc5)c(C(F)(F)F)nn4c3=O)nc12 [Compound C1094, 6-(7-chloro-4-methoxybenzo[d]oxazol-2-yl)-5-methyl-3-phenyl-2-(trifluoromethyl)pyrazolo[1,5-a]pyrimidin-7(4H)-one]
17 | – | – | < 20 µM | < 20 µM | < 5 µM | 5 to 20 µM | COc1cc(C)cc2oc(-c3c(C)[nH]c4c(-c5ccccc5)c(C(F)(F)F)nn4c3=O)nc12 [Compound C1098, 6-(4-methoxy-6-methylbenzo[d]oxazol-2-yl)-5-methyl-3-phenyl-2-(trifluoromethyl)pyrazolo[1,5-a]pyrimidin-7(4H)-one]
18 | C | – | < 20 µM | < 20 µM | – | < 5 µM | COc1ccc(C(N)=O)c2oc(-c3c(C)[nH]c4c(-c5ccccc5)c(C(F)(F)F)nn4c3=O)nc12 [Compound C1113, 4-methoxy-2-(5-methyl-7-oxo-3-phenyl-2-(trifluoromethyl)-4,7-dihydropyrazolo[1,5-a]pyrimidin-6-yl)benzo[d]oxazole-7-carboxamide]
19 | C | – | < 20 µM | < 20 µM | – | 5 to 20 µM | COc1cccc2oc(-c3c(C)[nH]c4c(-c5cccc(F)c5)c(C(F)(F)F)nn4c3=O)nc12 [Compound C1114, 3-(3-fluorophenyl)-6-(4-methoxybenzo[d]oxazol-2-yl)-5-methyl-2-(trifluoromethyl)pyrazolo[1,5-a]pyrimidin-7(4H)-one]
20 | C | C | > 100 µM | < 20 µM | – | – | Cc1[nH]c2c(-c3ccccc3)c(C(F)(F)F)nn2c(=O)c1-c1nc2c(OCC(=O)O)cccc2o1 [Compound C1117, 2-((2-(5-methyl-7-oxo-3-phenyl-2-(trifluoromethyl)-4,7-dihydropyrazolo[1,5-a]pyrimidin-6-yl)benzo[d]oxazol-4-yl)oxy)acetic acid]
21 | – | C | < 20 µM | < 20 µM | < 5 µM | – | COc1cccc2oc(-c3c(C(F)(F)F)[nH]c4c(-c5ccccc5)c(C#N)nn4c3=O)nc12 [Compound C1118, 6-(4-methoxybenzo[d]oxazol-2-yl)-7-oxo-3-phenyl-5-(trifluoromethyl)-4,7-dihydropyrazolo[1,5-a]pyrimidine-2-carbonitrile]

Reference: US10738056B2 (Aduro BioTech, Inc., priority 2017, dated 2020)
